Where two headings read alike, the source gives them in different places.
Key:
HT29 colon [1] = assay: MTT cell viability assay (GI50), HT29; type: cell-based, human; settings: for SCI: GI50 (MCF10A)/GI50 (HT29); for GI50: MTT
A431 skin [2] = assay: MTT cell viability assay (GI50), A431; type: cell-based, human; settings: for SCI: GI50 (MCF10A)/GI50 (A431); for GI50: A431 skin, MTT
MIA pancreas [3] = assay: MTT cell viability assay (GI50), MIA; type: cell-based, human; settings: for SCI: GI50 (MCF10A)/GI50 (MIA); for GI50: MIA pancreas, MTT
[4] = tested on: cisplatin-resistant ADDP ovarian variant; assay: MTT cell viability assay (GI50), ADDP; type: cell-based, human; settings: for SCI: GI50 (MCF10A)/GI50 (ADDP); for GI50: cisplatin-resistant ADDP ovarian variant, MTT
HT29 colon cells = assay: TMRE mitochondrial membrane potential (MtMP) assay; type: cell-based, human; settings: GI50 drug concentration (FCCP 20 μM)
Description: This was achieved by determining if the overproduction of ROS induced by these complexes impacts mitochondrial activity by altering MtMP. Briefly, there is evidence showing a strong correlation between increased levels of ROS and mitochondrial impairment. […] The MtMP changes recorded are measured as RFU. […] To investigate the MtMP changes in HT29 treated cells, a TMRE-MtMP Assay Kit (Abcam, Cambridge, MA, USA) was used, as previously described. In 96-well plates, 25,000 cells/mL of HT29 colon cells in DMEM were seeded. Cells were treated with a GI50 drug concentration for each complex. At 24, 48 or 72 h, cells were washed with PBS and stained with tetramethylrhodamine, ethyl ester (TMRE) (1 μM) and incubated for 30 min. TMRE was then removed, and cells were then re-washed with PBS (0.2% BSA), after which phenol red free media was added. The plates were directly scanned to measure fluorescence (expressed as RFU), using the Glo-Max®-Multimode microplate reader (Promega Corporation, Alexandra, VIC, Australia) at an excitation/emission of 549/575 nm. For the positive control, 20 μM carbonyl cyanide 4-(trifluoromethoxy) phenylhydrazone (FCCP)) was added to the cells and incubated for 10 min. The cells were washed with PBS (0.2% BSA) and stained with TMRE (1 μM) for 30 min; this was removed, and phenol red free media was added, and the final solution was scanned as mentioned above.

HT29 colon [5] = tested on: HT29 colon; design: method as in PMID 36142383, PMID 37173934, PMID 36296713; settings: cited from earlier work
U87 glioblastoma = tested on: U87 glioblastoma; design: method as in PMID 36142383, PMID 37173934, PMID 36296713; settings: cited from earlier work
H460 lung = tested on: H460 lung; design: method as in PMID 36142383, PMID 37173934, PMID 36296713; settings: cited from earlier work
A431 skin [6] = tested on: A431 skin; design: method as in PMID 36142383, PMID 37173934, PMID 36296713; settings: cited from earlier work
Du145 prostate = tested on: Du145 prostate; design: method as in PMID 36142383, PMID 37173934, PMID 36296713; settings: cited from earlier work
BE2-C neuroblastoma = tested on: BE2-C neuroblastoma; design: method as in PMID 36142383, PMID 37173934, PMID 36296713; settings: cited from earlier work
SJ-G2 glioblastoma = tested on: SJ-G2 glioblastoma; design: method as in PMID 36142383, PMID 37173934, PMID 36296713; settings: cited from earlier work
MIA pancreas [7] = tested on: MIA pancreas; design: method as in PMID 36142383, PMID 37173934, PMID 36296713; settings: cited from earlier work
A2780 ovarian = tested on: A2780 ovarian; design: method as in PMID 36142383, PMID 37173934, PMID 36296713; settings: cited from earlier work
[8] = tested on: cisplatin-resistant ADDP ovarian variant; design: method as in PMID 36142383, PMID 37173934, PMID 36296713; settings: cited from earlier work
MCF-7 breast = tested on: MCF-7 breast; design: method as in PMID 36142383, PMID 37173934, PMID 36296713; settings: cited from earlier work
[9] = tested on: non-tumour-derived MCF10A breast line; design: method as in PMID 36142383, PMID 37173934, PMID 36296713; settings: cited from earlier work
[10] = tested on: multiple human cell lines; design: method as in PMID 36142383, PMID 37173934, PMID 36296713; settings: average over all cell lines; cited from earlier work
[11] = Stability in PBS monitored by analytical HPLC; type: physicochemical; settings: PBS pH ~7.4, ~10 mM, 37 °C, one week, HPLC at 254 nm
Description: The stability of P-5B3A, 5-5B3A and 56-5B3A was monitored via analytical HPLC.
The stability of P-5B3A, 5-5B3A and 56-5B3A were measured at 254 nm. Each complex was incubated in aqueous phosphate-buffered saline (PBS) solution (pH ~7.4) (total sample concentration, ~10 mM) at 37 °C for one week. Analytical HPLC was utilised to monitor the experiments.

Solubility in d.i.H2O = type: physicochemical; settings: room temperature
Description: The solubility of P-5B3A, 5-5B3A and 56-5B3A was tested in d.i.H2O at room temperature. Small aliquots of d.i.H2O were titrated into an Eppendorf tube containing 1 mg of each complex until full dissolution. For every titration, each sample solution was vortexed and sonicated.

Compound | SCI (HT29 colon [1]) | SCI (A431 skin [2]) | SCI (MIA pancreas [3]) | SCI [4] | MtMP Changes (HT29 colon cells; 24 h, control 542 ± 4) | MtMP Changes (HT29 colon cells; 48 h, control 507 ± 11) | MtMP Changes (HT29 colon cells; 72 h, control 449 ± 10) | GI50 (HT29 colon [1]; HT29 colon) | GI50 (A431 skin [2]) | GI50 (MIA pancreas [3]) | GI50 [4] | Stability [11] | Solubility (Solubility in d.i.H2O) | fold more potent than cisplatin (HT29 colon [1]; HT29 colon, GI50 ratio) | fold more potent than cisplatin ([4]; ADDP, GI50 ratio) | also measured
N.N.[Cl][Pt][Cl] [Cisplatin, cis-diammineplatinum(II) dichloride] | 0.46 | 2.17 | 0.69 | 0.19 | 232 ± 4 RFU | 230 ± 4 RFU | 192 ± 7 RFU | – | – | – | – | – | – | – | – | GI50 (HT29 colon [5]): 11.3 µM; GI50 (U87 glioblastoma): 3.8 ± 1.1 µM; GI50 (H460 lung): 900 ± 200 nM; GI50 (A431 skin [6]): 2400 ± 300 nM; GI50 (Du145 prostate): 1200 ± 100 nM; GI50 (BE2-C neuroblastoma): 1900 ± 200 nM; GI50 (SJ-G2 glioblastoma): 400 ± 100 nM; GI50 (MIA pancreas [7]): 7.5 ± 1.3 µM; GI50 (A2780 ovarian): 1000 ± 100 nM; GI50 [8]: 28 µM; GI50 (MCF-7 breast): 6.5 ± 0.8 µM; GI50 [9]: 5.2 ± 0.52 µM; GI50 [10]: 5.84 ± 0.61 µM
[Pt^IV(5,6-Me2phen)(SS-DACH)(5B3A)(OH)]^2+ [56-5B3A] | 0.75 | 0.10 | 0.28 | 0.55 | 321 ± 11 RFU | 267 ± 8 RFU | 148 ± 7 RFU | 4.4 ± 1.6 nM | 33 ± 8.4 nM | 12 ± 3 nM | 6 ± 3 nM | adequately stable in aqueous solution for up to 1 week | 4 mg/mL | – | – | fold more potent than 56MESS ([4]; ADDP): 0.5 fold
[Pt^IV(5-Mephen)(SS-DACH)(5B3A)(OH)]^2+ [5-5B3A] | 1.06 | 0.20 | 0.61 | 0.83 | 324 ± 9 RFU | 280 ± 12 RFU | 184 ± 4 RFU | 18 ± 0.67 nM | 93 ± 8 nM | 31 ± 3 nM | 23 ± 0.88 nM | adequately stable in aqueous solution for up to 1 week | 6 mg/mL | ~630 fold | ~1220 fold | –
[Pt^IV(phen)(SS-DACH)(5B3A)(OH)]^2+ [P-5B3A] | 1.40 | 0.23 | 0.90 | 0.85 | 332 ± 7 RFU | 317 ± 7 RFU | 263 ± 5 RFU | 200 ± 27 nM | 1200 ± 100 nM | 310 ± 26 nM | 330 ± 8.8 nM | adequately stable in aqueous solution for up to 1 week | 7 mg/mL | at least 57 fold | at least 85 fold | fold more potent than carboplatin (HT29 colon [1]; HT29 colon, GI50 ratio): ≥ 250 fold; fold more potent than oxaliplatin (HT29 colon [1]; HT29 colon, GI50 ratio): ≥ 5 fold; fold more potent than carboplatin ([4]; ADDP, GI50 ratio): 152 fold

— PMC10888562 (International Journal of Molecular Sciences, 2024)
